Source: patent US20120301443A1, “METHODS FOR DEVELOPING ENDOTHELIAL CELLS FROM PLURIPOTENT CELLS AND ENDOTHELIAL CELLS DERIVED” (CORNELL UNIVERSITY, priority 2009, published 2012)

How the values were obtained:
Type in all cases: cell-based, human
[1] = test system: hESC-derived ECs; experiment: Expansion of isolated hESC-derived ECs with or without SB431542 (phase 2)
Method: (§1) Embryoid bodies were generated and cultured in base hESC medium, supplemented with the cytokines as shown. Briefly, embryoid bodies were generated in hESC base medium without FGF-2. On the morning following generation of EBs (day 0), medium was supplemented with 20 ng/ml BMP4 (R&D) (removed at day 7); on day 1, medium was supplemented with 10 ng/ml ActivinA (R&D) (removed at day 4); on day 2, medium was supplemented with 8 ng/ml FGF-2 (Peprotech) (remained for the duration of culture); on day 4, EBs were transferred to adherent conditions on Matrigel™-coated plates and medium was supplemented with 25 ng/ml VEGF-A (Peprotech) (remained for the duration of culture); on day 7, SB431542 (Tocris) was added at 10 μM concentration and remained for indicated duration. Cultures were dissociated using 0.5% Trypsin/EDTA (Gibco) or Accutase (eBioscience). Absolute yield as well as ratio of input hESCs to differentiated ECs was calculated from the number of live cells recovered from differentiation cultures at days 0, 14 and 20. Purified ECs could be frozen and thawed in 10% DMSO with greater than 90% recovery.
(§2) ECs were isolated from differentiation cultures using Magnetic Activated Cell Sorting (MACS; Miltenyi Biotech) with an antibody against CD31 conjugated to magnetic microbeads. Alternatively, cells were isolated by virtue of the expression of GFP/YFP or a fluorophore conjugated antibody to human CD31 or VEGFR2 (BD) using a FACS AriaII (BD).
Cryosections were immunocytochemically stained as previous described (James et al., Dev. Biol. 295: 90-102 (2006)). Briefly, samples were permeabilized in PBST and blocked in 5% donkey serum. Samples were incubated for 2 hours in primary antibodies blocking solution, washed 3 times in PBS and incubated in CY3-conjugated secondary antibodies (Jackson Laboratories) for 1 hour. Following washing some sections were counterstained for nucleic acids by TO-PRO3 (Invitrogen) before mounting and imaging by confocal microscopy. Primary antibodies included CD31 (DAKO), CD34 (DAKO), Phospho-HistoneH3, Smooth Muscle Actin (SMA) (DAKO) and VE-cadherin (R&D). […]

[2] = test system: hVPr-GFP hESCs; experiment: Endothelial (EC) differentiation of hVPr-GFP hESC embryoid bodies (phase 1)
Method: Human VPr-GFP hESCs were grown to confluence on Matrigel™ (BD Bioscience) and then incubated in 5 units/ml dispase (Gibco) until colonies were completely detached from the substrate. Human VPr-GFP EBs were washed and cultured in hESC medium on ultra low attachment plates (Corning) and cultured in the conditions described, with replacement of cytokine supplemented medium every 48 hours. Embryoid bodies were fixed in 4% paraformaldehyde and frozen for cryosectioning and staining.
as §1, with “on day 7, SB431542 (Tocris) was added at 10 μM concentration and remained for indicated” left out
as §2
Total RNA was prepared from cultured cells using the RNeasy™ extraction kit (Qiagen) and reverse transcribed using Superscript II reverse transcriptase (Invitrogen) according to the manufacturer's instructions. Relative quantitative PCR was performed on a 7500 Fast Real Time PCR System (Applied Biosystems) using either TaqMan PCR mix along with Id1 and β-actin primer pairs, or SYBR Green PCR mix (Applied Biosystems). […]
This EC reporter hESC line was also used to monitor the development of a chemically defined, serum-free methodology that could effectively augment vascular differentiation, consisting of two phases. […] Although these growth conditions promoted formation of hVPr-GFP^+ structures, the yield of dissociated hESC-derived ECs obtained by fluorescence-activated cell sorting (FACS) was low, and the few isolated ECs could not be expanded without the majority of derivatives assuming a non-EC phenotype. […]

[3] = test system: Id1-YFP hESC-derived CD31+ cells; experiment: Id1-YFP hESC-derived CD31+ cells expanded with and without the TGFβ-inhibitor, flow cytometry
Method: A bacterial artificial chromosome (BAC) was modified in order to place yellow fluorescent protein (YFP) under control of the endogenous human Id1 promoter locus. This reporter construct was electroporated into the H9 hESC line, selected for BAC integration using antibiotic resistance and subcloned. Clones were assessed and selected based on expression of YFP in Id1 hESC derivatives following spontaneous differentiation. […] To track Id1 expression in live hESC differentiation cultures, a stable BAC transgenic hESC-line expressing yellow fluorescent protein driven by the Id1-promoter (Id1-YFP) (Example 3 herein) was used (FIG. 3A-C). Differentiated ECs were isolated at day 14 from Id1-YFP cultures (FIG. 1d), sub-fractionating the CD31+ population into Id1-YFP high- and low-expressing cells, and these populations were serially expanded for seven days with and without the TGFβ-inhibitor (FIG. 3B).

[4] = test system: hESC-derived ECs; experiment: Absolute yield and ratio of input hESCs to differentiated ECs over phases 1 and 2
Method: as §1

[5] = ECs isolated at day 14, 5 days with vs without SB431542

**Q.** How did the “cell yield of isolated ECs” value ([1]; ECs isolated at day 14, 5-day culture period with vs without SB431542) turn out when NC(=O)c1ccc(-c2nc(-c3ccc4c(c3)OCO4)c(-c3ccccn3)[nH]2)cc1 [SB431542, 4-[4-(1,3-benzodioxol-5-yl)-5-(2-pyridinyl)-1H-imidazol-2-yl]benzamide] was run?
**A.** yielded more cells

**Q.** What about the “cell proliferation, percentage of Phospho-HistoneH3+ (PHH3) mitotic ECs” value [1, 5] of the same compound?
**A.** increased cell proliferation

**Q.** What about the “percentage of total population retaining α-SMA− CD31+ VEcadherin+ phenotype” value [1, 5] of the same compound?
**A.** higher percentage

**Q.** What about the “Oct3/4 and brachyury transcripts” value ([2]; QPCR, normalized to ACTB, time course of differentiation) of the same compound?
**A.** accelerated the reduction

**Q.** What about the “hVPr-GFP+ ECs when inhibitor is included from the onset of differentiation” value ([2]; SB431542 from day 0) of the same compound?
**A.** absence of hVPr-GFP+ ECs

**Q.** What about the “hVPr-GFP+CD31+ ECs” value ([2]; beginning at 9 days) of the same compound?
**A.** significant increase

**Q.** What about the “expression of SMA” value ([2]; time course of differentiation) of the same compound?
**A.** reducing expression of SMA

**Q.** What about the “mean fluorescence intensity of CD31” value ([3]; relative to unstimulated cells) of the same compound?
**A.** decreased

**Q.** And the “percentage of the CD31+ population” value ([3]; relative to unstimulated cells)?
**A.** increased

**Q.** What about the “Id1 expression (Id1-YFP)” value ([3]; seven days expansion with and without TGFβ-inhibitor) of the same compound?
**A.** up-regulation of Id1 expression

**Q.** And the “expansion in total number of vascular-committed hESC-derived ECs” value ([4]; TGFβ inhibition in phase 1 and 2, 20 days, vs control culture conditions)?
**A.** 36 fold

**Q.** And the “population maintaining EC identity” value ([4]; after phase 1 and phase 2 TGFβ-inhibition)?
**A.** 95%

**Q.** What about the “ratio of ECs generated from every one hESC input” value ([4]; over the course of 20 days) of the same compound?
**A.** 7.4 ECs per input hESC
